{"source": "paper PMC5967881", "about": "(Journal of medicinal chemistry, 2017)", "note": "Several values for one entry are separate records, joined by “and”; a condition that tells them apart may be missing. Equal values may be shown once."}
{"target": "AM2-S31N proton channel (Influenza A virus, UniProt P0DOF5, S31N)", "test": "not given", "assay_type": "biochemical", "details": "pH 5.5, 100 µM", "units": {"Electrophysiological TEVC assay (% S31N channel inhibition)": "%"}}
{"compound": "N-((5-(2-(methylsulfonyl)phenyl)isoxazol-3-yl)methyl)adamantan-1-amine [9m]", "Electrophysiological TEVC assay (% S31N channel inhibition)": "47.4 ± 0.5"}
{"target": "AM2-S31N proton channel (Influenza A virus, UniProt P0DOF5, S31N)", "test": "not given", "assay_type": "biochemical", "details": "pH 5.5, 100 µM; 100 µM"}
{"compound": "3-({[5-(3-methoxythiophen-2-yl)-1,2-oxazol-3-yl]methyl}amino)adamantan-1-ol [9s]", "Electrophysiological TEVC assay (% S31N channel inhibition)": "83.8 ± 3.3%"}
{"compound": "c1ccc(-c2cc(CNC34CC5CC(CC(C5)C3)C4)no2)cc1", "note": "[9a, N-[(5-phenyl-1,2-oxazol-3-yl)methyl]adamantan-1-amine]", "Electrophysiological TEVC assay (% S31N channel inhibition)": "91.2 ± 1.5%"}
{"compound": "OC12CC3CC(C1)CC(NCc1cc(-c4ccccc4Cl)on1)(C3)C2", "note": "[9d, 3-({[5-(2-chlorophenyl)-1,2-oxazol-3-yl]methyl}amino)adamantan-1-ol]", "Electrophysiological TEVC assay (% S31N channel inhibition)": "> 70%"}
{"compound": "CSc1ccccc1-c1cc(CNC23CC4CC(CC(O)(C4)C2)C3)no1", "note": "[9f, 3-[({5-[2-(methylsulfanyl)phenyl]-1,2-oxazol-3-yl}methyl)amino]adamantan-1-ol]", "Electrophysiological TEVC assay (% S31N channel inhibition)": "> 70% and > 90%"}
{"compound": "Oc1ccccc1-c1cc(CNC23CC4CC(CC(C4)C2)C3)no1", "note": "[9h, 2-(3-(((adamantan-1-yl)amino)methyl)isoxazol-5-yl)phenol]", "Electrophysiological TEVC assay (% S31N channel inhibition)": "> 70%"}
{"compound": "Clc1ccc(-c2cc(CNC34CC5CC(CC(C5)C3)C4)no2)s1", "note": "[9q, N-((5-(5-chlorothiophen-2-yl)isoxazol-3-yl)methyl)adamantan-1-amine]", "Electrophysiological TEVC assay (% S31N channel inhibition)": "> 70%"}
{"compound": "Clc1cc(-c2cc(CNC34CC5CC(CC(C5)C3)C4)no2)cs1", "note": "[9r, N-((5-(5-chlorothiophen-3-yl)isoxazol-3-yl)methyl)adamantan-1-amine]", "Electrophysiological TEVC assay (% S31N channel inhibition)": "> 70%"}
{"compound": "COc1sccc1-c1cc(CNC23CC4CC(CC(C4)C2)C3)no1", "note": "[9t, N-((5-(2-methoxythiophen-3-yl)isoxazol-3-yl)methyl)adamantan-1-amine]", "Electrophysiological TEVC assay (% S31N channel inhibition)": "> 70%"}
{"compound": "Clc1cc(-c2cc(CNC34CC5CC(CC(C5)C3)C4)no2)c(Cl)s1", "note": "[9u, N-((5-(2,5-dichlorothiophen-3-yl)isoxazol-3-yl)methyl)adamantan-1-amine]", "Electrophysiological TEVC assay (% S31N channel inhibition)": "> 70%"}
{"compound": "OC12CC3CC(C1)CC(NCc1cc(-c4cc(Cl)sc4Cl)on1)(C3)C2", "note": "[9v, 3-({[5-(2,5-dichlorothiophen-3-yl)-1,2-oxazol-3-yl]methyl}amino)adamantan-1-ol]", "Electrophysiological TEVC assay (% S31N channel inhibition)": "> 70%"}
{"tested_on": "A/Washington/29/2009 (H1N1)", "test": "microbe, parasite or virus in culture", "assay_type": "cell-based", "details": "Influenza A virus, H1N1, read-out: EC50 against A/Washington/29/2009 (H1N1)", "units": {"EC50": "nM"}}
{"compound": "Clc1ccc(-c2cc(CNC34CC5CC(CC(C5)C3)C4)no2)s1", "note": "[9q, N-((5-(5-chlorothiophen-2-yl)isoxazol-3-yl)methyl)adamantan-1-amine]", "EC50": "100 to 200"}
{"tested_on": "A/Denmark/528/2009 (H1N1)", "test": "microbe, parasite or virus in culture", "assay_type": "cell-based", "details": "Influenza A virus, H1N1, read-out: EC50 against A/Denmark/528/2009 (H1N1)", "units": {"EC50": "nM"}}
{"compound": "Clc1ccc(-c2cc(CNC34CC5CC(CC(C5)C3)C4)no2)s1", "note": "[9q, N-((5-(5-chlorothiophen-2-yl)isoxazol-3-yl)methyl)adamantan-1-amine]", "EC50": "100 to 200"}
